Holding throughout (assay type): physicochemical
Series [1] is described as follows: Dynamic vapor sorption (DVS) with XRPD before and after. The source says: FIG. 8 is a dynamic vapor sorption isotherm plot. Cycle sorption is shown in red; cycle 1 desorption is shown in blue; and cycle 2 sorption is shown in green.
Pre-DVS data is shown in red; and post-DVS data is shown in blue.

The nature of series [2]: Solid-form stability on heating, vacuum dehydration and re-exposure to ambient RH (XRPD). On the procedure:
CV-8972 starting material is shown in blue; CV-8972 following incubation at 90° C. for 8 hours is shown in red; and CV-8972 following incubation at 65° C. in a vacuum for 2 hours is shown in purple. To see if the small DSC endotherm at 85.3° C. corresponds to polymorphic phase transition or dehydration, XRPD was performed on Form A after storing it in an oven at 90° C. for 8 hours.
Data from starting material is shown in blue; data following incubation for 2 hours in vacuum oven are shown in red; and data from heated material that was exposed to ambient relative humidity is shown in green. To monitor Form A in its dehydrated state, it was placed in a vacuum oven at 65° C. for 2 hours followed by its XRPD analysis.

Series [3] in a line: Approximate solubility of starting material at RT by stepwise solvent addition. The settings on record: thermodynamic from solid. As to the method:
Starting with Form A, polymorph screening experiments were set up under 34 conditions using methods of slurry conversion, liquid vapor diffusion, slow evaporation, and slow cooling. The approximate solubility of starting material was determined at room temperature (RT). Accurately weighed samples of approximately 2 mg weight were added into a 3-mL glass vial. Solvents were then added step wise (50/50/200/700 μL) into the vials until the solids were dissolved or a total volume of 1 mL was reached.

Series [4] can be described thus: Slurry conversion / water activity / slurry competition at RT, solids analysed by XRPD. On the procedure:
Slurry conversion experiments were conducted at RT in different solvent systems. Approximately 20 mg of starting material was suspended in 0.1 mL of solvent in HPLC vials. After the suspension was stirred magnetically for 48 hours at RT, the remaining solids were isolated for XRPD analysis.

SMILES strings stand for the structures. Values after ≈ are worked out from the molar mass of the structure shown.

For `COc1ccc(CN2CCN(CCOC(=O)c3cccnc3)CC2)c(OC)c1OC` [CV-8972, 2-[4-[(2,3,4-trimethoxyphenyl)methyl]piperazin-1-yl]ethyl pyridine-3-carboxylate], in series [1] (25° C. and 80% relative humidity (RH)), the “Water uptake (DVS)” value was < 0.2%. For the same compound, in series [1] (beyond 80% RH, possible deliquescence), the “Mass change (DVS)” value is given as “drastic increase in the mass change”. In addition, the “XRPD of the sample after DVS” value in series [1] (post-DVS versus pre-DVS) was “mostly similar to the starting material”.
As for `COc1ccc(CN2CCN(CCOC(=O)c3cccnc3)CC2)c(OC)c1OC` [Form A, 2-[4-[(2,3,4-trimethoxyphenyl)methyl]piperazin-1-yl]ethyl pyridine-3-carboxylate], the “Solid form after vacuum oven (XRPD)” value in series [2] (65° C. vacuum for 2 hours) is reported as “Form E”. In series [2] (90° C. for 8 hours), the “Solid form after oven storage (XRPD)” value was “converts to Form E”. In addition, the solubility was < 1800 µg/mL in series [3] (CHCl3, organic solvent or mixture, CHCI3, RT); < 1700 µg/mL in series [3] (organic solvent or mixture, 1,4-Dioxane, RT); < 1500 µg/mL in series [3] (organic solvent or mixture, ACN, RT); < 2000 µg/mL in series [3] (organic solvent or mixture, Acetone, RT); < 1500 µg/mL in series [3] (organic solvent or mixture, CPME, RT); < 2200 µg/mL in series [3] (organic solvent or mixture, DCM, RT). Moreover, the solubility in series [3] (organic solvent or mixture, DMF, RT) is 1800 to 6000 µg/mL (≈ 4.33 to 14.4 mM); in series [3] (organic solvent or mixture, DMSO, RT), 5000 to 15000 µg/mL (≈ 12 to 36.1 mM); in series [3] (organic solvent or mixture, EtOAc, RT), < 1800 µg/mL; in series [3] (organic solvent or mixture, EtOH, RT), < 1700 µg/mL; in series [3] (organic solvent or mixture, IPA, RT) it was < 2300 µg/mL; in series [3] (organic solvent or mixture, IPAc, RT), < 1700 µg/mL. Further, the solubility in series [3] (organic solvent or mixture, MEK, RT) was < 2000 µg/mL; in series [3] (organic solvent or mixture, MIBK, RT), < 2000 µg/mL; in series [3] (organic solvent or mixture, MeOH, RT) it was > 46000 µg/mL; in series [3] (organic solvent or mixture, NMP, RT) it was 6700 to 20000 µg/mL (≈ 16.1 to 48.1 mM); in series [3] (organic solvent or mixture, THF, RT), < 2200 µg/mL; in series [3] (organic solvent or mixture, Toluene, RT), < 2300 µg/mL. The solubility in series [3] (organic solvent or mixture, n-Heptane, RT) is < 1900 µg/mL; in series [3] (water, H2O, RT) it was > 44000 µg/mL. Further, the “Solid Form after slurry conversion” value in series [4] (Acetone, stirred 48 hours at RT) is given as “Form A”; in series [4] (Acetone/H2O (aw = 0.2, 941/59), 48 hours at RT) it was “Form A”; in series [4] (Acetone/H2O (aw = 0.4, 857/143), 48 hours at RT), “Form A”; in series [4] (Acetone/H2O (aw = 0.6, 726/274), 48 hours at RT), “Form A”; in series [4] (Acetone/H2O (aw = 0.8, 492/508), 48 hours at RT) it was “Form A”; in series [4] (H2O, 48 hours at RT), “Form A”. Besides, in series [4] (ambient temperature and relative humidity), the “Relative stability among polymorphs” value is recorded as “most stable”. For the same compound, the “Hygroscopicity (DVS)” value in series [1] (25° C., up to 80% RH) is listed as “non hygroscopic”.
For `COc1ccc(CN2CCN(CCOC(=O)c3cccnc3)CC2)c(OC)c1OC` [Form E, 2-[4-[(2,3,4-trimethoxyphenyl)methyl]piperazin-1-yl]ethyl pyridine-3-carboxylate], in series [2] (ambient RH, rehydration), the “Solid form change on exposure to ambient temperature and humidity” value was “partial conversion to Form A”. In addition, the “Solid form change in slurry competition between Forms D and E” value in series [4] is listed as “converted to Form A”. The “Solid form change in water activity analysis” value in series [4] (all conditions tested) is on record as “converts to Form A”.

One may read the solubility as the dissolved amount per volume that the medium holds.

The record behind these values is patent US12065410B2, “Crystal forms of 2-[4-[(2,3,4-trimethoxyphenyl)methyl]piperazin-1-yl]ethyl pyridine-3-carboxylate” (IMBRIA PHARMACEUTICALS, INC., priority 2020, dated 2024).
